Data: paper PMC9220178, “Preclinical Characterization of Antioxidant Quinolyl Nitrone QN23 as a New Candidate for the Treatment of Ischemic Stroke” (Antioxidants, 2022)

Assays:
[1] = test system: adult male Wistar rats, four-vessel occlusion (4VO) transient forebrain ischemia; assay: Neurological deficit score (NDS) after global cerebral ischemia (4VO); format: in vivo, rat; conditions: R5d
Protocol: Transient forebrain ischemia was induced in adult male Wistar rats (10–12 weeks, Charles River, L’Arbresle, France) by the standard four-vessel occlusion (4VO) model previously described. Briefly, animals were anesthetized by intraperitoneal injection of a combination of ketamine, diazepam, and atropine (62.5, 5.0, and 0.25 mg/kg, respectively); positioned in a stereotactic device; and both vertebral arteries were cauterized. The next day, anesthesia was induced with 4% isoflurane and maintained at 2–2.5% isoflurane for carotid artery dissection. After anesthesia withdrawal, the carotid arteries were occluded with an atraumatic vascular clamp to induce brain ischemia. During the entire surgical procedure, temperature was monitored at 2 min intervals and kept at 37 °C. After 15 min of ischemia, the carotid arteries were unclamped for brain reperfusion. The animals were studied after 5 days of reperfusion (R5d), or after 11 weeks of reperfusion (long-term studies), and then they were euthanized under deep anesthesia. Animals from the sham control group were handled in the same way, but without occlusion of the carotid arteries. Ischemic animals were treated with vehicle solution (ethanol/polyethylene glycol 400/saline, 1:300:200 v/v), or with nitrones QN23 or NXY-059 in vehicle solution, as a single injection through the tail vein at the onset of reperfusion. For the therapeutic window experiments, the animals were also treated at reperfusion times 1, 3, and 6 h after ischemia. The treatments were prepared by an independent researcher and administered with concealed allocation. Treatments were administered in a randomized order obtained by a computer-based randomization program. […]
After 5 days of post-ischemic reperfusion (R5d), neurological deficits were evaluated in the animals by a researcher blind to the treatment allocation. General status and mobility impairments were quantified according to a scale previously validated in an entire cohort of R5d animals (n = 20). […]

[2] = test system: male Wistar rats, transient middle cerebral artery occlusion (tMCAO); assay: Neurofunctional score in transient focal cerebral ischemia (tMCAO); format: in vivo; conditions: for Neurofunctional impairment compared with vehicle: 24 h and 48 h
Protocol: For the transient focal cerebral ischemia experimental model we used 12-week-old male Wistar rats (300–350 g, Charles River), housed under standard conditions with food and water ad libitum. The animals were anesthetized by an intraperitoneal injection of a mixture of 100 mg/kg ketamine, 5 mg/kg diazepam, and 0.3 mg/kg atropine. Anesthesia was maintained during the surgical procedure by inhalation of 1–1.5% sevoflurane in 80% medicinal air plus 20% O2. For the transient occlusion of the right middle cerebral artery (tMCAO, 60 min), we followed the intraluminal suture procedure as originally described, adapted to our experimental setup. The procedure included continuous monitoring of cortical perfusion (CP, by Laser-Doppler flowmetry), arterial blood pressure, and core temperature, and discontinuous measurement of glycemia levels during preischemia (basal), ischemia, and reperfusion stages. Buprenorphine (subcutaneous, 0.05 mg/kg) was used as an analgesic. Forty-eight hours after the ischemic insult, the animals were euthanized by intracardiac injection of potassium chloride (200 mg/kg) under deep anesthesia, and the brains were obtained.
A power analysis (see above) provided a sample size of 6 subjects per group. A total of 35 animals was used in this study. The animals were randomly assigned to four experimental tMCAO groups, treated with (1) vehicle; (2) QN23, 1.5 mg/kg; (3) QN23, 2.5 mg/kg; and (4) QN23, 4 mg/kg. QN23 was dissolved in vehicle and injected through the femoral vein 20 min after the end of tMCAO. Nine animals were excluded from the study, based on predefined criteria, because of death within the first 24 h after the procedure (1 vehicle, 1 QN23-treated at 2.5 mg/kg, and 4 QN23-treated at 4.0 mg/kg) or due to no infarct after the procedure (1 vehicle, 1 QN23-treated at 1.5 mg/kg, and 1 QN23-treated at 2.5 mg/kg). Experiments were conducted in compliance with the legislation on the protection of animals used for scientific purposes in Spain (RD 53/2013) and the EU (Directive 2010/63/EU). […]
Twenty-four and 48 hours after the ischemic insult, the rats’ neurofunctional status was evaluated following the procedure previously reported. The severity of functional deficits was determined with the sum of the score of four tests assessing (a) spontaneous activity (moving/exploring = 0, no moving or moving only when pushed = 1), (b) circling to the left (none = 0, circling when elevated by the tail and pushed = 1, circling without displacement, spinning = 2), (c) parachute reflex: protective abduction of forelimbs (symmetrical = 0, asymmetrical, contralateral forelimb retracted = 1), and (d) resistance to left forepaw stretching (not allowed = 0, allowed = 1). […]

[3] = test system: experimental cerebral ischemia; set-up: method as in PMID 30715875; conditions: 1.5 mg/kg intraperitoneally; cited from earlier work
[4] = test system: carrageenan-induced rat paw edema; set-up: method as in PMID 30715875; conditions: cited from earlier work

SMILES: COc1ccc2nc(Cl)c(/C=[N+](\[O-])C(C)(C)C)cc2c1 [QN23, (Z)-N-tert-Butyl-1-(2-chloro-6-methoxyquinolin-3-yl)methanimine Oxide]
- General status (neurological deficit score, NDS) compared with vehicle ([1]; 2.0 mg/kg i.v. at reperfusion onset): significant improvement
- Therapeutic window: administration time after reperfusion onset with significantly reduced NDS ([1]; 2.0 mg/kg i.v., times tested 0, 1, 3, 6 h): up to 3 h
- Neurofunctional impairment compared with vehicle ([2]; 1.5 mg/kg and 2.5 mg/kg i.v. 20 min after end of tMCAO): significantly reduced
- Animals that died within 24 h ([2]; 2.5 mg/kg i.v., tMCAO): one
- Neurofunctional impairment compared with vehicle ([2]; 4 mg/kg i.v. 20 min after end of tMCAO): not at 4 mg/kg
- Animals that died before 24 h ([2]; 4 mg/kg i.v., tMCAO): four
- Neuroprotective effect (neuronal death and neuronal apoptosis assays) [3]: significant neuroprotective effect
- Anti-inflammatory activity [4]: showed anti-inflammatory properties
